With `Cc1ncc(Cn2c(NC3CCN(CCNC(=O)c4cc5ccccc5n4C)CC3)nc3ccccc32)o1`, the melting point came to 104 °C.
Consider `CCOC(=O)/C=C/c1cnc(-c2ccc(O)c(C34CC5CC(CC(C5)C3)C4)c2)nc1`, for which the melting point fell in the range of 226 to 228 °C.
The value for `CC(C)(CCCCCCCCCCC(C)(C)C(O)C(=O)O)C(O)C(=O)O` (stereo unspecified) was 87 to 100 °C.
As to `CC(=C1SC(=O)NC1=O)c1cccc(OCCCOc2c(-c3ccc(F)cc3)n(C)c3ccccc3c2=O)c1`, the melting point fell in the range of 168 to 170 °C.
With `COc1c(C#Cc2ccc(NS(C)(=O)=O)cc2C)cc(N2CCC(=O)NC2=O)cc1C(C)(C)C`, the melting point was above 280 °C.
The value for `Fc1ccc(-c2ncn(C3CCNCC3)c2-c2cccnc2Oc2ccc(OCc3ccccc3)cc2)cc1` was 178 to 179 °C.
In the case of `c1csc(CNCc2ccc(-c3cc4ncnc(Nc5ccc6[nH]ccc6c5)c4s3)cc2)c1`, the melting point is 111 to 121 °C.
The compound `CCCC(=O)Nc1ncc(C(C)C)s1` yielded a melting point of 95 to 97 °C.
As for `O=C1c2ccccc2OCC1Br` (stereo unspecified), the melting point was in the range of 48 to 51 °C.
Compound `COC(=O)c1cc(C(O)CN(C)C)ccc1OCc1ccccc1` (stereo unspecified) had a melting point of 79 to 81 °C.
The value for `CCOC(=O)Cc1cccc(S(=O)(=O)c2ccccc2)c1[N+](=O)[O-]` was 105 to 106 °C; that for `Cc1cc(Br)cnc1CCCCNc1nccc(=O)[nH]1` was 109 to 113 °C; that for `Cn1nc2nc(C(C)(C)C)[nH]c(=O)c2c1N(S(C)(=O)=O)S(C)(=O)=O` was 258 to 259 °C.
Regarding `Cn1nc(-c2ccccc2S(=O)(=O)Cl)oc1=O`, the melting point was 122 to 125 °C.
For `CC(=O)C1C(=O)CC(CCS(=O)(=O)c2ccc(C(F)(F)F)cc2)CC1=O` (stereo unspecified), the melting point amounted to 136 °C.
Regarding `CC(C)Oc1cccc(C=C2Oc3ccc(C(=O)O)cc3C2=O)c1`, the melting point lay within 277 to 279 °C.
`CNC(=O)c1cccc(Nc2nc(Nc3ccc4c(c3)C(C)(C)CCC(=O)N4)ncc2Cl)c1` had a melting point of 184 °C.
In turn, `Cc1cc(-n2ccnc2)c2cccc(OCc3c(Cl)ccc(S(=O)(=O)N4CCCC4C(=O)NCC4CCN(CCC(=O)OC(C)(C)C)CC4)c3Cl)c2n1` (stereo unspecified) yielded a melting point of 92 °C.
In turn, `Cn1cc(C2OC(=O)NC2=O)c2ccccc21` (stereo unspecified) gave a melting point of 152 to 154 °C.
The value for `O=C(O)CNC(=O)c1nnc2ccc(NCCCN3CCC(OC(c4ccccc4)c4ccccc4)CC3)nn12` was 182 to 184 °C; that for `Cc1c2cccc(-c3cccc(C(=O)NCCC#N)c3)c2nn1Cc1cccc(C(F)(F)F)c1` was 196 to 197 °C.
`COCc1cccc(C(C#N)c2nc(OC)cc(OC)n2)c1[N+](=O)[O-]` (stereo unspecified) returned a melting point of 112 to 113 °C.
`CC(C)(C)OC(=O)N1C[C@@H](Br)C[C@@H]1C(=O)OCc1ccccc1` displayed a melting point of 87 to 88 °C.
The value for `O=C(c1ccc(F)cc1)c1cc(Cl)nnc1Cl` was 71.1 to 72.6 °C; that for `O=C1c2ccccc2C(=O)N1CCCc1cccnc1` was 88 to 89 °C; that for `CCC(=NO)C(C)(C)NCC(C)(C)CN` was 118 to 120 °C.
Compound `Cn1c(CN2CCOCC2)nc([N+](=O)[O-])c1C#N` showed a melting point of 112 to 115 °C.
`O=S(=O)(Nc1ccc2c(OCc3ccc4ccccc4c3)cccc2c1)C(F)(F)F` had a melting point of 140 to 142 °C.
For `C=C(C)Cc1cc2c(cc1O)CC(=O)N2CC`, the melting point fell in the range of 118 to 120 °C.
`c1ccc2c(c1)c1nncn1c1c(-c3noc(C4CC4)n3)ncn21` displayed a melting point of 308 to 314 °C.
In turn, `O=[N+]([O-])c1cc(I)ccc1Nc1cccc(-n2cccn2)c1` had a melting point of 165 to 166 °C.
`COC(=O)C1CN1C(C)=O` (stereo unspecified) displayed a melting point of 39 to 40 °C.
`O=C(Nc1ccc2[nH]c(=O)[nH]c2c1)C(=O)N1CCC(Oc2ccc(Cl)cc2)CC1` gave a melting point of 286 to 288 °C.
As for `CN(C)C(=O)c1nc2n(n1)-c1ccc(Cl)cc1C(c1ccccc1)=NC2`, the melting point lay within 135 to 137 °C.
The compound `COC(=O)c1ccc2cc(CO)ccc2c1` came in with a melting point of 120 to 121 °C.
`CN(C)c1cccc2c(S(=O)(=O)N3CCC(NC(=O)Nc4ccc(OC(F)(F)F)cc4)CC3)cccc12` had a melting point of 102 to 107 °C.
Compound `CC1(C)C=C(c2c[nH]c(-c3ccc(F)cc3)c2-c2ccncc2)CC(C)(C)N1` returned a melting point of 258 to 259 °C.
In turn, `CCOS(=O)(=O)c1ccc(-c2ccc(CCl)cc2)cc1` registered a melting point of 112 to 116 °C.
`CC(=O)Nc1cccc(S(=O)(=O)N2[C@H](C)CN(CC(=O)Nc3ccccc3C)C[C@@H]2C)c1` yielded a melting point of 236 to 238 °C.
With `CC(=O)OCCn1c(=O)oc(=O)c2ccccc21`, the melting point fell in the range of 128 to 131 °C.
The compound `Nc1nc(-c2ccc(CCNC(=O)Cc3ccccc3)cc2)cs1` registered a melting point of 176 to 177 °C.
`CNc1nc2ncnn2c(NC2CCCC2)c1-c1ccccc1`: the melting point was in the range of 158 to 160 °C.
With `CCCCCCCCCCCCCCCCCCOC(=O)C(N)Cc1ccc(N)cc1` (stereo unspecified), the melting point fell in the range of 54 to 56 °C.
Compound `COc1cc2c(Nc3ccc(C)c(OC(C)=O)c3)ncnc2cc1OCc1ccncc1` registered a melting point of 201 to 202 °C.
Regarding `CN(C)c1cccc(C(=O)Nc2ccc3ccc(Cl)nc3n2)c1`, the melting point is 215 °C.
As for `O=c1[nH]c2ccc(CCN3CCN(c4ncnc5ccccc45)CC3)cc2o1`, the melting point stood at 200 °C.
For `CC(=O)Nc1ccc(N=O)cc1`, the melting point lay in the range of 179 to 180 °C.
`O=C(O)CCc1c(Cl)cccc1-c1cccs1` had a melting point of 83 to 86 °C.
The same measure for `CC(C)(C)OC(=O)Nc1ccc(-c2cccc(F)c2)cc1NC(=O)CC(=O)c1cccc(-n2ccnc2)c1`: 70 to 83 °C; for `COc1cc(Nc2c(C#N)cnc3cc(C#C[Si](C)(C)C)sc23)c(Cl)cc1Cl`: 169 to 171 °C.
Take `O=C(O)COc1ccc2c(=O)c3c(F)cccc3oc2c1Cl`: the melting point came to 300 °C.
For `CNc1cc(Cl)cc(NCCOC)c1[N+](=O)[O-]`, the melting point came to 93 °C.
Regarding `COC(=O)c1ccc(C2=NOC(c3cc(Cl)cc(Cl)c3)(C(F)(F)F)C2)cc1` (stereo unspecified), the melting point lay within 94 to 96 °C.
For the compound `CS(=O)(=O)c1ccc(-c2cnn(Cc3ccc([N+](=O)[O-])cc3)c(=O)c2-c2ccc(F)cc2)cc1`, the melting point was in the range of 183 to 184 °C.
In the case of `Cc1cc(OCc2ccccc2)cc(=O)o1`, the melting point fell in the range of 90 to 91 °C.
The value for `O=[N+]([O-])c1cccnc1Sc1ncccn1` was 122 to 124 °C; that for `CCCc1c(CSc2nnc(SCCCCCCC(=O)O)s2)ccc(C(C)=O)c1O` was 63 to 68 °C.
With `O=C(N[C@H](Cc1ccc(C(F)(F)F)cc1)[C@@H](O)c1ccc(F)cc1)c1cccc(Oc2ccccc2)c1` (racemic), the melting point was in the range of 144 to 145 °C.
`CS(=O)(=O)CCC(C#N)CC#N` (stereo unspecified) came in with a melting point of 123 to 125 °C.
In the case of `CS(=O)(=O)N1CCN2C(=O)N(c3ccc(C#N)c4ccccc34)C(=O)C2C1` (stereo unspecified), the melting point lay in the range of 207 to 216 °C.
With `COc1ccc(C(=O)NCCCCCCCNC(=O)c2ccc(OC)cc2)cc1`, the melting point was 157 to 159 °C.
The same measure for `OCc1cc(Cl)c(Br)cn1`: 109 to 110 °C; for `CC(C)(C)OC(=O)N1C(=O)C(C2=COc3ccccc3O2)=C(c2cn(C(=O)OC(C)(C)C)c3ccc(OCc4ccccc4)cc23)C1=O`: 76 °C.
As for `O=C(O)CN[C@H]1CCN(c2ccc3c(NC(=O)CC4CCCCC4)c(Cl)ccc3n2)C1`, the melting point lay in the range of 257 to 259 °C.
The compound `CCCCc1oc2ccccc2c1C(=O)NCc1ccc2c(-c3ccc(Cl)cc3)c(O)ccc2c1` showed a melting point of 122 to 124 °C.
As for `Fc1ccc(C2=C(c3ccccc3)N(C(F)(F)F)CO2)cc1F`, the melting point was in the range of 146 to 148 °C.
The value for `C#CCN1CCC[C@H](NCc2ccccc2OC)[C@@H]1c1ccccc1` (relative stereo) was 147 to 149 °C; that for `CCCCCc1c(-c2ccc(OC(F)F)c(OC3CC3)c2)[nH]c2cn[nH]c(=O)c12` was 191 to 193 °C; that for `CCCC(CCC)n1c(CC)nc2c1C(=O)N(C)C(CC)N2c1ccc(Cl)cc1Cl` (stereo unspecified) was 116 to 118 °C.
Take `O=C(NCc1ccccc1Br)c1ccc2cnccc2n1`: the melting point was 129 to 130 °C.
`Cc1nc2scc(C)n2c1S(N)(=O)=O` registered a melting point of 177 to 178 °C.
For `CN1Cc2c(-c3noc(CN4CCCC(C)(C)C4)n3)ncn2-c2ccccc2C1=O`, the melting point lay in the range of 167 to 168 °C.
For the compound `Cc1c(C(=O)Nc2ccc(N3CCC(N4CCOCC4)CC3)c(C#N)c2)cnn1CCc1ccccc1`, the melting point came to 195 °C.
As for `CC(=NOCCOc1ccc(CC2SC(=O)NC2=O)cc1)c1ccc(Cl)cc1` (stereo unspecified), the melting point lay within 118 to 119 °C.
Compound `O=c1ccoc2ccc(F)cc12` returned a melting point of 165 to 168 °C.
Compound `COc1ccc(N2CCN(c3c(C)c(C)c4c(c3C)CC(C)(CN3CCOCC3)O4)CC2)cc1` (stereo unspecified) returned a melting point of 137 to 142 °C.
`COC(=O)C1(C)Cc2c([nH]c3ccc(OC)cc23)C(c2ccccc2)N1` (stereo unspecified) had a melting point of 172 to 175 °C.
For `NCC1Cc2cc(-c3ccccc3)cc(-c3ccccc3)c2O1` (stereo unspecified), the melting point is above 250 °C.
As for `OCC(CBr)(CBr)CBr`, the melting point lay within 67 to 69 °C.
The compound `Cn1cncc1C(O)(c1ccc(Cl)cc1)c1ccc2c(c1)c(-c1cccc(Cl)c1)cc(=O)n2C` (stereo unspecified) showed a melting point of 234 °C.
The value for `COc1ccc(CC2SC(=O)NC2=O)c2c1N(Cc1ccc(NC(=O)c3ccc4ccccc4c3)cc1)C(=O)CC2` (stereo unspecified) was 202 to 208 °C.
For the compound `CCCCCCCCNc1ccc(-c2cc3ccccc3o2)cc1`, the melting point lay in the range of 87 to 90 °C.
The value for `CNC(=O)c1cc2ccccc2c(-c2ccc(I)cc2)n1` was 163 to 164 °C.
`Cc1ccccc1-c1c(NC(=O)Nc2c(C)cccc2C)c(=O)oc2c(F)cc(F)cc12` yielded a melting point of 221 to 222 °C.
The compound `COc1ccsc1S(=O)(=O)Nc1nc2c(OC)cnc(OC)n2n1` yielded a melting point of 227 to 228 °C.
For the compound `CC1(COC(=O)N2CC=C(c3ccc(C(F)(F)F)cc3)CC2)Cn2cc([N+](=O)[O-])nc2O1` (stereo unspecified), the melting point was in the range of 113 to 115 °C.

The record behind these values is a melting point compilation (Tetko et al.; mined from patent text by program, amines drawn as free bases though some values may be those of a salt).
